From patent US7863276B2, “Salts of modulators of PPAR and methods of treating metabolic disorders” (KALYPSYS, Inc, priority 2005, dated 2011) come the findings set out here.

Holding throughout (type): cell-based, murine and human
The target in experiment [1] is T1, PPARα (UniProt Q07869).
T1 sequence (Q07869 1-468): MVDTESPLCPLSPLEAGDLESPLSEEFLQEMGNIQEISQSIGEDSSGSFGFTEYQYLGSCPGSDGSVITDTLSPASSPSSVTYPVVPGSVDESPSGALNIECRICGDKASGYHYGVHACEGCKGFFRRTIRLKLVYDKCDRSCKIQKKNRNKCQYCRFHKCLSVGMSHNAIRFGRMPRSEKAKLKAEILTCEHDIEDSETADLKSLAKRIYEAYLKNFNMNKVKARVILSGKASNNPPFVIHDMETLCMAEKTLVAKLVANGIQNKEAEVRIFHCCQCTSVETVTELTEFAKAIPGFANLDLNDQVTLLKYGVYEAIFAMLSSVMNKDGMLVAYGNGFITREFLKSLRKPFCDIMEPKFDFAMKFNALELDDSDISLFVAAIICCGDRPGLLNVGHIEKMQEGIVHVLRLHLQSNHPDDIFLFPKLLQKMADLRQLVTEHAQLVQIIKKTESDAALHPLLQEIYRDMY
In words: PPARα GAL4 chimera transactivation assay in CV-1 cells. Conditions: transient transfection, luciferase reporter, 20-24 hours, read-out: PPAR alpha. An excerpt: (§1) Compounds were screened for functional potency in transient transfection assays in CV-1 cells for their ability to activate the PPAR subtypes (transactivation assay). A previously established chimeric receptor system was utilized to allow comparison of the relative transcriptional activity of the receptor subtypes on the same synthetic response element and to prevent endogenous receptor activation from complicating the interpretation of results. See, for example, Lehmann, J. M.; Moore, L. B.; Smith-Oliver, T. A; Wilkinson, W. O.; Willson, T. M.; Kliewer, S. A., An antidiabetic thiazolidinedione is a high affinity ligand for peroxisome proliferator-activated receptor […], J. Biol. Chem., 1995, 270, 12953-6. The ligand binding domains for murine and human PPARα, PPARγ, and PPARδ are each fused to the yeast transcription factor GAL4 DNA binding domain. CV-1 cells were transiently transfected with expression vectors for the respective PPAR chimera along with a reporter construct containing four or five copies of the GAL4 DNA binding site driving expression of luciferase. […] Luciferase activity was then assayed with Britelite (Perkin Elmer) following the manufacturer's protocol and measured with either the Perkin Elmer Viewlux or Molecular Devices Acquest (see, for example, Kliewer, S. A., et. al. Cell 1995, 83, 813-819). […]
A general note: A reporter such as luciferase makes a cellular process visible.

The target in experiment [2] is T2, PPARδ (UniProt Q03181).
T2 sequence (Q03181 1-441): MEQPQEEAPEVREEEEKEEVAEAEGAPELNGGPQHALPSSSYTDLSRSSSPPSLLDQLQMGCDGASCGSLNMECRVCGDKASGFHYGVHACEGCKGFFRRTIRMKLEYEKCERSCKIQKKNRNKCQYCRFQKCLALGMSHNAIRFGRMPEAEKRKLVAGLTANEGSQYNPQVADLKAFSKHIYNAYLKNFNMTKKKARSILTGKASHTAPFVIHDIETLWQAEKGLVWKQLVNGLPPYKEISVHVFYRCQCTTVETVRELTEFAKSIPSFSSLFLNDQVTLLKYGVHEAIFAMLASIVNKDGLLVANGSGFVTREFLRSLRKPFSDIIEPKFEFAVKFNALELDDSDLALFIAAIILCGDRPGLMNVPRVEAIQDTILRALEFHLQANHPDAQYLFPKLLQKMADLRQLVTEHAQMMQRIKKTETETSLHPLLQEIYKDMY
The experiment can be described thus: PPARδ GAL4 chimera transactivation assay in CV-1 cells. Conditions: transient transfection, luciferase reporter, 20-24 hours, read-out: PPAR delta.
Description: as §1

The target of experiment [3] is T3, PPARγ (UniProt P37231).
T3 sequence (P37231 1-505): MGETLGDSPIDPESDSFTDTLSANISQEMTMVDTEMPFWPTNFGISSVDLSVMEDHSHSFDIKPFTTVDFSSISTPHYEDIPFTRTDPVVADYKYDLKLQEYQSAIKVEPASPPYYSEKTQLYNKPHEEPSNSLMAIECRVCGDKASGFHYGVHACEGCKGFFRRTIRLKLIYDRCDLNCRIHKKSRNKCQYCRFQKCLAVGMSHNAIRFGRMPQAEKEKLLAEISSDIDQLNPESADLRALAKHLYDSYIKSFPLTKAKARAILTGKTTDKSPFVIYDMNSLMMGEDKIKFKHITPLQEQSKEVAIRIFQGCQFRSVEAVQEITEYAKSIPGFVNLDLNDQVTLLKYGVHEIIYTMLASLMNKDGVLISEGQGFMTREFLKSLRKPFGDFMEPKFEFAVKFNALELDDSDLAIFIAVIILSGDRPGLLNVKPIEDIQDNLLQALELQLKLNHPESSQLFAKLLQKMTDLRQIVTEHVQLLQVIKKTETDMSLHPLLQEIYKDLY
The experiment can be described thus: PPARγ GAL4 chimera transactivation assay in CV-1 cells. Conditions: transient transfection, luciferase reporter, 20-24 hours, read-out: PPAR gamma.
Description: as §1

In the case of `C[C@@H]1CN(c2ccc(OC(F)(F)F)cc2)C[C@H](C)N1S(=O)(=O)c1cccc2c1C[C@@H](C(=O)O)C2` [Compound 1, (S)-4-[cis-2,6-Dimethyl-4-(4-trifluoromethoxy-phenyl)-piperazine-1-sulfonyl]-indan-2-carboxylic acid], the EC50 is greater than 100 µM in experiment [1], less than 5 µM in experiment [2] and greater than 100 µM in experiment [3].

For `C[C@@H]1CN(Cc2ccc(OC(F)(F)F)cc2)C[C@H](C)N1S(=O)(=O)c1cccc2c1C[C@@H](C(=O)O)C2` [Compound 2, (S)-4-[cis-2,6-Dimethyl-4-(4-trifluoromethoxy-benzyl)-piperazine-1-sulfonyl]-indan-2-carboxylic acid], the EC50 was greater than 100 µM in experiment [1], less than 5 µM in experiment [2] and 5 to 100 µM in experiment [3].
